Experimental data from US20240148821A1, “PHARMACEUTICAL USE OF CYCLIC PEPTIDE COMPOUND” (CHUGAI SEIYAKU KABUSHIKI KAISHA, priority 2021, published 2024).
Numbered stars: 1 amine (or outer) side, 2 acyl side, 3 side chain; on linkers, the order of the positions; unused ones are H or OH. Bridge positions count the residues as written; N and C are the ends. Square brackets hold non-standard residues; d marks the D form. Peptide text beside a SMILES is read from it. * marks the point of attachment. hPhe(3-Cl-4-CF3) = N[C@@H](CCc1ccc(C(F)(F)F)c(Cl)c1)C(=O)O; NMePhe(3-CN) = CN[C@@H](Cc1cccc(C#N)c1)C(=O)O; NMePhe(4-Cl) = CN[C@@H](Cc1ccc(Cl)cc1)C(=O)O; NMePhe(4-Me) = CN[C@@H](Cc1ccc(C)cc1)C(=O)O; NMePhe(2-Me) = CN[C@@H](Cc1ccccc1C)C(=O)O; NMedβ3hAla = C[C@H](CC(=O)[*:2])N(C)[*:1]; NMeAla(cPent) = CN[C@@H](CC1CCCC1)C(=O)O; X72 = O=C([C@@H]1Cc2ccccc2N1[*:1])[*:2]; Phe(2-Cl) = N[C@@H](Cc1ccccc1Cl)C(=O)O; Phe(3-I) = N[C@@H](Cc1cccc(I)c1)C(=O)O; Phe(4-F) = N[C@@H](Cc1ccc(F)cc1)C(=O)O; NMeAla(cPr) = CN[C@@H](CC1CC1)C(=O)O; NMeCha = CN[C@@H](CC1CCCCC1)C(=O)O; NMeCba = CN[C@@H](CC1CCC1)C(=O)O; NMeChg = CN[C@H](C(=O)O)C1CCCCC1; NMeI = CC[C@H](C)[C@H](NC)C(=O)O; NMeD = CN[C@@H](CC(=O)O)C(=O)O; NMeL = CN[C@@H](CC(C)C)C(=O)O; αMeL = CC(C)C[C@](C)(N)C(=O)O; NMeV = CN[C@H](C(=O)O)C(C)C; d(β3hA) = C[C@@H](N)CC(=O)O; NMeA = CN[C@@H](C)C(=O)O; NMeAib = CNC(C)(C)C(=O)O; Nle = CCCC[C@H](N)C(=O)O; Piperidide = C1CCN(*)CC1; Pra = C#CC[C@H](N)C(=O)O; Ac5c = NC1(C(=O)O)CCCC1; Aze = O=C(O)[C@@H]1CCN1; Sar = CNCC(=O)O

Each compound was assayed on Human pancreatic cancer cell line AsPC-1 (G12D mutation Kras) (assay: AsPC-1 cell growth inhibition (AsPC-1 CGI)). Details: read-out: AsPC-1 cell growth inhibition, 50% growth inhibitory concentration (IC50 value); 96 hours, CellTiter-Glo, values classified in ranges.
Type: cell-based
Protocol: Test compounds were serially dilated with dimethyl sulfoxide, and 200 nL was then dispensed to a U-bottom 96-well plate using Labcyte Echo. […] The cell suspension was dispensed to a. plate containing a test compound at 100 μL per well and incubated at 37° C. in a 5% carbon dioxide gas incubator. 96 hours later, 80 μL of CellTiter-Glo (Promega) was added to each well and fluorescence was measured.

Structure (SMILES)	IC50 [µM]
CCCC[C@@H]1NC(=O)[C@H](CCc2ccc(C(F)(F)F)c(Cl)c2)NC(=O)CN(C)C(=O)[C@H](CC2CCCC2)N(C)C(=O)[C@@H]2CCN2C(=O)[C@H](C)N(C)C(=O)[C@H]([C@@H](C)CC)NC(=O)[C@H](CC(C)C)N(C)C(=O)C[C@@H](C(=O)N2CCCCC2)N(C)C(=O)[C@H](CC(C)C)NC(=O)C(C)(C)N(C)C1=O [Compound 691] ([NMeL]I[NMeA][Aze][NMeAla(cPent)][Sar][hPhe(3-Cl-4-CF3)][Nle][NMeAib]L[NMeD]-Piperidide; lactam N-11)	> 0.5
CCCC[C@@H]1NC(=O)[C@H](Cc2cccc(I)c2)NC(=O)CN(C)C(=O)[C@H](Cc2ccc(Cl)cc2)N(C)C(=O)CN(C)C(=O)CN(C)C(=O)[C@H]([C@@H](C)CC)NC(=O)[C@H](CC(C)C)N(C)C(=O)C[C@@H](C(=O)N2CCCCC2)N(C)C(=O)[C@H](CC(C)C)NC(=O)[C@H](Cc2ccccc2C)N(C)C1=O [Compound 696] ([NMeL]I[Sar][Sar][NMePhe(4-Cl)][Sar][Phe(3-I)][Nle][NMePhe(2-Me)]L[NMeD]-Piperidide; lactam N-11)	> 0.5
CC[C@H](C)[C@@H]1NC(=O)[C@H](C)N(C)C(=O)C[C@@H](C)NC(=O)[C@H](C(C)C)N(C)C(=O)C2(CCCC2)NC(=O)[C@@H]2CCCN2C(=O)[C@H](CCc2ccc(C(F)(F)F)c(Cl)c2)NC(=O)CN(C)C(=O)[C@H](CC2CCCCC2)N(C)C(=O)CN(C)C(=O)CN(C)C1=O [Compound 697] (cyclo([Ac5c][NMeV][d(β3hA)][NMeA]I[Sar][Sar][NMeCha][Sar][hPhe(3-Cl-4-CF3)]P))	> 0.5
CC[C@H](C)[C@@H]1NC(=O)[C@H](CC(C)C)N(C)C(=O)C[C@@H](C(=O)N2CCCCC2)N(C)C(=O)[C@H](CC(C)C)NC(=O)C(C)(C)N(C)C(=O)[C@H](Cc2ccc(OC)cc2)NC(=O)[C@H](Cc2cccc(I)c2)NC(=O)CN(C)C(=O)[C@H](Cc2ccc(C)cc2)N(C)C(=O)[C@@H]2CCN2C(=O)[C@H](C)N(C)C1=O [Compound 703] ([NMeL]I[NMeA][Aze][NMePhe(4-Me)][Sar][Phe(3-I)]Y(Me)[NMeAib]L[NMeD]-Piperidide; lactam N-11)	> 0.5
CC[C@H](C)[C@@H]1NC(=O)[C@H](CC(C)C)N(C)C(=O)C[C@@H](C)NC(=O)[C@H](C(C)C)N(C)C(=O)[C@](C)(CC(C)C)NC(=O)[C@@H]2CCCN2C(=O)[C@H](CCc2ccc(C(F)(F)F)c(Cl)c2)NC(=O)CN(C)C(=O)[C@H](CC2CCCCC2)N(C)C(=O)CN(C)C(=O)CN(C)C1=O [Compound 705] (cyclo(I[Sar][Sar][NMeCha][Sar][hPhe(3-Cl-4-CF3)]P[αMeL][NMeV][d(β3hA)][NMeL]))	> 0.5
CC[C@H](C)[C@@H]1NC(=O)[C@H](CC(C)C)N(C)C(=O)C[C@@H](C(=O)N2CCCCC2)N(C)C(=O)[C@H](CC(C)C)NC(=O)C(C)(C)N(C)C(=O)[C@H](Cc2ccccc2Cl)NC(=O)[C@H](Cc2cccc(I)c2)NC(=O)CN(C)C(=O)[C@H](Cc2ccc(C)cc2)N(C)C(=O)CN(C)C(=O)CN(C)C1=O [Compound 706] ([NMeL]I[Sar][Sar][NMePhe(4-Me)][Sar][Phe(3-I)][Phe(2-Cl)][NMeAib]L[NMeD]-Piperidide; lactam N-11)	> 0.5
CC[C@H](C)[C@@H]1NC(=O)[C@H](CC(C)C)N(C)C(=O)C[C@@H](C)NC(=O)[C@H](CC2CC2)N(C)C(=O)C2(CCCC2)NC(=O)[C@@H]2CCCN2C(=O)[C@H](CCc2ccc(C(F)(F)F)c(Cl)c2)NC(=O)CN(C)C(=O)[C@H](CC2CCCCC2)N(C)C(=O)CN(C)C(=O)CN(C)C1=O [Compound 707] (cyclo([Ac5c][NMeAla(cPr)][d(β3hA)][NMeL]I[Sar][Sar][NMeCha][Sar][hPhe(3-Cl-4-CF3)]P))	> 0.5
CC[C@H](C)[C@@H]1NC(=O)[C@H](CC(C)C)N(C)C(=O)C[C@@H](C(=O)N2CCCCC2)N(C)C(=O)[C@H](C(C)C)N(C)C(=O)C2(CCCC2)NC(=O)[C@@H]2CCCN2C(=O)[C@H](CCc2ccc(C(F)(F)F)c(Cl)c2)NC(=O)CN(C)C(=O)[C@H](Cc2cccc(C#N)c2)N(C)C(=O)CN(C)C(=O)CN(C)C1=O [Compound 710] ([NMeL]I[Sar][Sar][NMePhe(3-CN)][Sar][hPhe(3-Cl-4-CF3)]P[Ac5c][NMeV][NMeD]-Piperidide; lactam N-11)	> 0.5
CC[C@H](C)[C@@H]1NC(=O)[C@H](CC(C)C)N(C)C(=O)C[C@@H](C(=O)N2CCCCC2)N(C)C(=O)[C@H](CC(C)C)NC(=O)C(C)(C)N(C)C(=O)[C@H](Cc2ccc(F)cc2)NC(=O)[C@H](Cc2cccc(I)c2)NC(=O)CN(C)C(=O)[C@H](CC2CCCCC2)N(C)C(=O)CN(C)C(=O)CN(C)C1=O [Compound 711] ([NMeL]I[Sar][Sar][NMeCha][Sar][Phe(3-I)][Phe(4-F)][NMeAib]L[NMeD]-Piperidide; lactam N-11)	> 0.5
CC[C@H](C)[C@@H]1NC(=O)[C@H](CC(C)C)N(C)C(=O)C[C@@H](C(=O)N(C)C)N(C)C(=O)[C@H]([C@@H](C)CC)N(C)C(=O)[C@H](C)NC(=O)[C@H](C)N(C)C(=O)[C@H](CCc2ccc(C(F)(F)F)c(Cl)c2)NC(=O)CN(C)C(=O)[C@H](Cc2ccc(C)cc2)N(C)C(=O)[C@@H]2CCN2C(=O)[C@H](C)N(C)C1=O [Compound 715] ([NMeL]I[NMeA][Aze][NMePhe(4-Me)][Sar][hPhe(3-Cl-4-CF3)][NMeA]A[NMeI][NMeD]-NMe2; lactam N-11)	> 0.5
C#CC[C@@H]1NC(=O)[C@H](CC(C)C)N(C)C(=O)C[C@@H](C(=O)N2CCCCC2)N(C)C(=O)[C@H](C2CCCCC2)N(C)C(=O)C2(CCCC2)NC(=O)[C@@H]2CCCN2C(=O)[C@H](CCc2ccc(C(F)(F)F)c(Cl)c2)NC(=O)CN(C)C(=O)[C@H](CC2CCCCC2)N(C)C(=O)CN(C)C(=O)CN(C)C1=O [Compound 716] ([NMeL][Pra][Sar][Sar][NMeCha][Sar][hPhe(3-Cl-4-CF3)]P[Ac5c][NMeChg][NMeD]-Piperidide; lactam N-11)	> 0.5
CC[C@H](C)[C@@H]1NC(=O)[C@H](CC(C)C)N(C)C(=O)C[C@@H](C(=O)N2CCCCC2)N(C)C(=O)[C@H](C2CCCCC2)N(C)C(=O)C2(CCCC2)NC(=O)[C@@H]2CCCN2C(=O)[C@H](CCc2ccc(C(F)(F)F)c(Cl)c2)NC(=O)[C@H](C)N(C)C(=O)[C@H](CC2CCCCC2)N(C)C(=O)CN(C)C(=O)CN(C)C1=O [Compound 722] ([NMeL]I[Sar][Sar][NMeCha][NMeA][hPhe(3-Cl-4-CF3)]P[Ac5c][NMeChg][NMeD]-Piperidide; lactam N-11)	> 0.5
CC[C@H](C)[C@@H]1NC(=O)[C@H](CC(C)C)N(C)C(=O)C[C@@H](C)N(C)C(=O)[C@H](CC2CCC2)N(C)C(=O)C2(CCCC2)NC(=O)[C@@H]2CCCN2C(=O)[C@H](CCc2ccc(C(F)(F)F)c(Cl)c2)NC(=O)CN(C)C(=O)[C@H](CC2CCCCC2)N(C)C(=O)CN(C)C(=O)CN(C)C1=O [Compound 723] (cyclo([Ac5c][NMeCba][NMedβ3hAla][NMeL]I[Sar][Sar][NMeCha][Sar][hPhe(3-Cl-4-CF3)]P))	> 0.5
CC[C@H](C)[C@@H]1NC(=O)[C@H](CC(C)C)N(C)C(=O)C[C@@H](C(=O)N2CCCCC2)N(C)C(=O)[C@H](C2CCCCC2)N(C)C(=O)C2(CCCC2)NC(=O)[C@@H]2Cc3ccccc3N2C(=O)[C@H](CCc2ccc(C(F)(F)F)c(Cl)c2)NC(=O)CN(C)C(=O)[C@H](CC2CCCCC2)N(C)C(=O)[C@@H]2CCN2C(=O)CN(C)C1=O [Compound 725] ([NMeL]I[Sar][Aze][NMeCha][Sar][hPhe(3-Cl-4-CF3)][X72][Ac5c][NMeChg][NMeD]-Piperidide; lactam N-11)	> 0.5
